Results from patent US20250215012A1, “IKZF2 DEGRADERS AND USES THEREOF” (REGENTS OF THE UNIVERSITY OF MICHIGAN, priority 2022, published 2025).
Read-outs that look alike come from different tables or passages of the source.

What was measured:
IKZF2 = IKZF2 (Homo sapiens (Human), UniProt Q96SW2+Q9UKS7); experiment: IKZF2 HiBiT Assay (Jurkat-IKZF2-HiBiT cell line); type: cell-based; conditions: for DC50: read-out: HiBit assay degradation analysis DC50; for Dmax: read-out: HiBit assay degradation analysis Dmax
Chain of IKZF2 (Q9UKS7 whole entry): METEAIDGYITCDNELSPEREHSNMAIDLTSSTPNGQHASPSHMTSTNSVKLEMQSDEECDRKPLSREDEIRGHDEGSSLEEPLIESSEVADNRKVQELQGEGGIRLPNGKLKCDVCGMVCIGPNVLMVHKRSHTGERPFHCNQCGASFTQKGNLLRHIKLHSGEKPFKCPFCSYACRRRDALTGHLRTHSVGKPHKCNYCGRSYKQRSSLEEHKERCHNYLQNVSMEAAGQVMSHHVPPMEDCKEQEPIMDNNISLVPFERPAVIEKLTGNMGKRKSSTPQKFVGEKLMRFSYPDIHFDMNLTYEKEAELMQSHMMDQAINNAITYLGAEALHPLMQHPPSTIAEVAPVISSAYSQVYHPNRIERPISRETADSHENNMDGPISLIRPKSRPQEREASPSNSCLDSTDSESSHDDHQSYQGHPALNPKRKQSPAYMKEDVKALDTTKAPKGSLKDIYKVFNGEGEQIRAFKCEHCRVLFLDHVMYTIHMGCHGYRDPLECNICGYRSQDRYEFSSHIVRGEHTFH
Chain of IKZF2 (Q96SW2 whole entry): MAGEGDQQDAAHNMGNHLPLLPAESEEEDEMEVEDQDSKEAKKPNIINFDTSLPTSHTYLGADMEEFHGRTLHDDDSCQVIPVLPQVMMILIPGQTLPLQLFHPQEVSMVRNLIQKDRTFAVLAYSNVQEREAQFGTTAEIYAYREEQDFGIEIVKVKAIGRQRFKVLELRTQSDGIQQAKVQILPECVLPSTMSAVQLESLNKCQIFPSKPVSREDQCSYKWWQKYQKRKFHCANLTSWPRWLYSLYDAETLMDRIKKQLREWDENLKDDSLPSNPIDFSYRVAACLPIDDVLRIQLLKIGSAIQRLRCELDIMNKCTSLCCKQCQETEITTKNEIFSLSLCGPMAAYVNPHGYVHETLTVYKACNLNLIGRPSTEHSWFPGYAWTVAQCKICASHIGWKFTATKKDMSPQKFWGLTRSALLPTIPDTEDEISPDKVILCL
Chain of IKZF2 (Q16531 whole entry partner): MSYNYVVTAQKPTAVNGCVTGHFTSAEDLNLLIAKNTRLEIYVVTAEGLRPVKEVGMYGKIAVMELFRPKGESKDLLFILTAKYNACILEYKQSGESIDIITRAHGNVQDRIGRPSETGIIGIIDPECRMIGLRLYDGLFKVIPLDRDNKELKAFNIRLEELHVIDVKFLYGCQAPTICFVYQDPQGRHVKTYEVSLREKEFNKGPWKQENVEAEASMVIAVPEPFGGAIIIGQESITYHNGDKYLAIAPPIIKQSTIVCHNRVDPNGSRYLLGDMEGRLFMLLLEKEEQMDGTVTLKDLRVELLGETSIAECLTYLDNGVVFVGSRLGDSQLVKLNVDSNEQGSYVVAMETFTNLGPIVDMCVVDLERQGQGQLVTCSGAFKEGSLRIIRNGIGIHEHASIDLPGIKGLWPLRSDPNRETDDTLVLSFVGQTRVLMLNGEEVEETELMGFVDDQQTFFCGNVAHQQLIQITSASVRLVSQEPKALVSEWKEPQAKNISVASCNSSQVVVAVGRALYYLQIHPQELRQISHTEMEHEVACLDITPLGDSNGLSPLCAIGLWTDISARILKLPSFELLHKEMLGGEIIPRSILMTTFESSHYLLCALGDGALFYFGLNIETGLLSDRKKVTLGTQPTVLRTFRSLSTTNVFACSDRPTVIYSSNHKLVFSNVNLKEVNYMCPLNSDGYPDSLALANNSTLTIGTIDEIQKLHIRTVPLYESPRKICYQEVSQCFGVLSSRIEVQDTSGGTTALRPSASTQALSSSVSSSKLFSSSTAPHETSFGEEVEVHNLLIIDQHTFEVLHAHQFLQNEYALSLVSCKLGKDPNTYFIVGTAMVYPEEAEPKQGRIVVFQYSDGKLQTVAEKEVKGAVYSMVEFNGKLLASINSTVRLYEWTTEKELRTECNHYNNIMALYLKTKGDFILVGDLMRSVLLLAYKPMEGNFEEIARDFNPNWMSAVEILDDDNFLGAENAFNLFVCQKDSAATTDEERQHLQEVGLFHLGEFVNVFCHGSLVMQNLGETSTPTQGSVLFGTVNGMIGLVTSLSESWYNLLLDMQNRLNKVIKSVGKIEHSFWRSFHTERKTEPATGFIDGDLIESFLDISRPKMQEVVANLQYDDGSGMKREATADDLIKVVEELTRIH
Outline: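 Jurkat cells carrying HiBiT-tagged IKZF2 were exposed to serially diluted compound for 24 h at 37 °C. Remaining IKZF2 was measured by Nano-Glo HiBiT lytic luminescence after 10-20 min at room temperature. Signal was normalized to DMSO, and IC50 came from a four-parameter variable-slope fit.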

[1] = target: GST-tagged wild-type human CRBN protein (Homo sapiens (Human), UniProt Q96SW2); experiment: Cereblon Binding Assay (Cisbio Cereblon Binding Kit, TR-FRET); conditions: about 3 hours at room temperature
Chain of GST-tagged wild-type human CRBN protein (Q96SW2 whole entry): as the sequence (Q96SW2 whole entry) above
Procedure: (§1) The binding to cereblon (CRBN) is determined using the Cereblon Binding Kit (Cisbio, #64BDCRBNPEG) following the manufacturer's instruction. Briefly, serially diluted compounds are incubated with GST-tagged wild-type human CRBN protein, XL665-labelled Thalidomide and Europium Cryptate labelled GST antibody.
as §1, with “(CRBN) was” for “(CRBN) is”, “compounds were” for “compounds are”, “GST antibody at room temperature for about 3 hours.” for “GST antibody.”

[2] = Jurkat-IKZF2-HiBiT cells, 24 hours

Compound | DC50 (IKZF2; [2]) [nM] | Dmax (IKZF2; [2]) [%] | IC50 [1] [nM] | Dmax (IKZF2) [%]
Cn1cc2ccc(CN3CCC4(CC3)COc3c4ccc4c3CN(C3CCC(=O)NC3=O)C4=O)cc2n1 (stereo not drawn) [Compound A69, 3-(1′-((2-methyl-2H-indazol-6-yl)methyl)-6-oxo-6,8-dihydro-2H,7H-spiro[furo[2,3-e]isoindole-3,4′-piperidin]-7-yl)piperidine-2,6-dione] | < 50 | 60 to 80 | 100 to 1000 | 
O=C1CCC(N2Cc3c(ccc4c3OCC43CCN(Cc4cc(Cl)cc5[nH]ncc45)CC3)C2=O)C(=O)N1 (stereo not drawn) [Compound A128, 3-(1′-((6-chloro-1H-indazol-4-yl)methyl)-6-oxo-6,8-dihydro-2H,7H-spiro[furo[2,3-e]isoindole-3,4′-piperidin]-7-yl)piperidine-2,6-dione] | 50 to 200 | 40 to 60 | 100 to 1000 | 
O=C1CCC(N2Cc3c(ccc4c3OCC43CCN(Cc4cccc5cn[nH]c45)CC3)C2=O)C(=O)N1 (stereo not drawn) [Compound A52, 3-(1′-((1H-indazol-7-yl)methyl)-6-oxo-6,8-dihydro-2H,7H-spiro[furo[2,3-e]isoindole-3,4′-piperidin]-7-yl)piperidine-2,6-dione] | < 50 | 60 to 80 | 10 to 100 | 
O=C1CCC(N2Cc3c(ccc4c3OCC43CCN(Cc4cccc5[nH]ccc45)CC3)C2=O)C(=O)N1 (stereo not drawn) [Compound A87, 3-(1′-((1H-indol-4-yl)methyl)-6-oxo-6,8-dihydro-2H,7H-spiro[furo[2,3-e]isoindole-3,4′-piperidin]-7-yl)piperidine-2,6-dione] | < 50 | > 80 | 100 to 1000 | 
Cn1cc(-c2cccc(CN3CCC4(CC3)COc3c4ccc4c3CN(C3CCC(=O)NC3=O)C4=O)c2)cn1 (stereo not drawn) [Compound A105, 3-(1′-(3-(1-methyl-1H-pyrazol-4-yl)benzyl)-6-oxo-6,8-dihydro-2H,7H-spiro[furo[2,3-e]isoindole-3,4′-piperidin]-7-yl)piperidine-2,6-dione] | < 50 | 60 to 80 | 100 to 1000 | 
Cc1ccc(CN2CCC3(CCOc4c3ccc3c4CN(C4CCC(=O)NC4=O)C3=O)CC2)cc1 (stereo not drawn) [Compound A12, 3-(1-(4-methylbenzyl)-7′-oxo-2′,3′,7′,9′-tetrahydro-8′H-spiro[piperidine-4,4′-pyrano[2,3-e]isoindol]-8′-yl)piperidine-2,6-dione] | > 500 | < 40 | 10 to 100 | 
O=C1CCC(N2Cc3c(ccc4c3OCC43CCN(Cc4cccc(Cn5cccn5)c4)CC3)C2=O)C(=O)N1 (stereo not drawn) [Compound A126, 3-(1′-(3-((1H-pyrazol-1-yl)methyl)benzyl)-6-oxo-6,8-dihydro-2H,7H-spiro[furo[2,3-e]isoindole-3,4′-piperidin]-7-yl)piperidine-2,6-dione] | 200 to 500 | 40 to 60 | 100 to 1000 | 
Cc1ccc(CN2CCC3(CC2)COc2c3ccc3c2CN(C2CCC(=O)NC2=O)C3=O)cc1 (stereo not drawn) [Compound A15, 3-(1′-(4-methylbenzyl)-6-oxo-6,8-dihydro-2H,7H-spiro[furo[2,3-e]isoindole-3,4′-piperidin]-7-yl)piperidine-2,6-dione] | 200 to 500 | 40 to 60 | 100 to 1000 | 
O=C1CCC(N2Cc3c(ccc4c3OCC43CCN(Cc4cccc(CO)c4)CC3)C2=O)C(=O)N1 (stereo not drawn) [Compound A98, 3-(1′-(3-(hydroxymethyl)benzyl)-6-oxo-6,8-dihydro-2H,7H-spiro[furo[2,3-e]isoindole-3,4′-piperidin]-7-yl)piperidine-2,6-dione] | 50 to 200 | 60 to 80 | 100 to 1000 | 
Cn1ccc2ccc(CN3CCC4(CC3)COc3c4ccc4c3CN(C3CCC(=O)NC3=O)C4=O)cc21 (stereo not drawn) [Compound A130, 3-(1′-((1-methyl-1H-indol-6-yl)methyl)-6-oxo-6,8-dihydro-2H,7H-spiro[furo[2,3-e]isoindole-3,4′-piperidin]-7-yl)piperidine-2,6-dione] | < 50 | 60 to 80 | 100 to 1000 | 
O=C1CCC(N2Cc3c(ccc4c3OCC43CCN(Cc4cccc(F)c4)CC3)C2=O)C(=O)N1 (stereo not drawn) [Compound A29, 3-(1′-(3-fluorobenzyl)-6-oxo-6,8-dihydro-2H,7H-spiro[furo[2,3-e]isoindole-3,4′-piperidin]-7-yl)piperidine-2,6-dione] | > 500 | 40 to 60 | > 1000 | 
O=C1CCC(N2Cc3c(ccc4c3OCC43CCN(Cc4cc(Br)cc5[nH]ncc45)CC3)C2=O)C(=O)N1 (stereo not drawn) [Compound A127, 3-(1′-((6-bromo-1H-indazol-4-yl)methyl)-6-oxo-6,8-dihydro-2H,7H-spiro[furo[2,3-e]isoindole-3,4′-piperidin]-7-yl)piperidine-2,6-dione] | < 50 | 40 to 60 | 100 to 1000 | 
O=C1CCC(N2Cc3c(ccc4c3OCC43CCN(Cc4ccc(C(F)F)cc4)CC3)C2=O)C(=O)N1 (stereo not drawn) [Compound A3, 3-(1′-(4-(difluoromethyl)benzyl)-6-oxo-6,8-dihydro-2H,7H-spiro[furo[2,3-e]isoindole-3,4′-piperidin]-7-yl)piperidine-2,6-dione] | > 500 | 40 to 60 | 10 to 100 | 
O=C1CCC(N2Cc3c(ccc4c3OCC43CCN(Cc4cccc(-n5cncn5)c4)CC3)C2=O)C(=O)N1 (stereo not drawn) [Compound A124, 3-(1′-(3-(1H-1,2,4-triazol-1-yl)benzyl)-6-oxo-6,8-dihydro-2H,7H-spiro[furo[2,3-e]isoindole-3,4′-piperidin]-7-yl)piperidine-2,6-dione] | 200 to 500 | 40 to 60 | 100 to 1000 | 
Cn1ccc(-c2cccc(CN3CCC4(CC3)COc3c4ccc4c3CN(C3CCC(=O)NC3=O)C4=O)c2)n1 (stereo not drawn) [Compound A134, 3-(1′-(3-(1-methyl-1H-pyrazol-3-yl)benzyl)-6-oxo-6,8-dihydro-2H,7H-spiro[furo[2,3-e]isoindole-3,4′-piperidin]-7-yl)piperidine-2,6-dione] | < 50 | 60 to 80 | 100 to 1000 | 
O=C1CCC(N2Cc3c(ccc4c3OCC43CCN(Cc4ccc(F)c(F)c4)CC3)C2=O)C(=O)N1 (stereo not drawn) [Compound A5, 3-(1′-(3,4-difluorobenzyl)-6-oxo-6,8-dihydro-2H,7H-spiro[furo[2,3-e]isoindole-3,4′-piperidin]-7-yl)piperidine-2,6-dione] | > 500 | < 40 | 100 to 1000 | 
O=C1CCC(N2Cc3c(ccc4c3OCC43CCN(Cc4ccc5cn[nH]c5c4)CC3)C2=O)C(=O)N1 (stereo not drawn) [Compound A56, 3-(1′-((1H-indazol-6-yl)methyl)-6-oxo-6,8-dihydro-2H,7H-spiro[furo[2,3-e]isoindole-3,4′-piperidin]-7-yl)piperidine-2,6-dione] | < 50 | 60 to 80 | 100 to 1000 | 
CCn1cc(-c2cccc(CN3CCC4(CC3)COc3c4ccc4c3CN(C3CCC(=O)NC3=O)C4=O)c2)cn1 (stereo not drawn) [Compound A145, 3-(1′-(3-(1-ethyl-1H-pyrazol-4-yl)benzyl)-6-oxo-6,8-dihydro-2H,7H-spiro[furo[2,3-e]isoindole-3,4′-piperidin]-7-yl)piperidine-2,6-dione] | < 50 | 60 to 80 | 10 to 100 | 
CCc1ccc(CN2CCC3(CCOc4c3ccc3c4CN(C4CCC(=O)NC4=O)C3=O)CC2)cc1 (stereo not drawn) [Compound A11, 3-(1-(4-ethylbenzyl)-7′-oxo-2′,3′,7′,9′-tetrahydro-8′H-spiro[piperidine-4,4′-pyrano[2,3-e]isoindol]-8′-yl)piperidine-2,6-dione] | > 500 | 40 to 60 | 10 to 100 | 
Cn1cc(-c2cccc(CN3CCC4(CC3)COc3c4ccc4c3CN([C@H]3CCC(=O)NC3=O)C4=O)c2)cn1 [Compound A170, (S)-3-(1′-(3-(1-methyl-1H-pyrazol-4-yl)benzyl)-6-oxo-6,8-dihydro-2H,7H-spiro[furo[2,3-e]isoindole-3,4′-piperidin]-7-yl)piperidine-2,6-dione] | < 50 | 60 to 80 | 100 to 1000 | 
O=C1CCC(N2Cc3c(ccc4c3OCC43CCN(Cc4ccc5ccoc5c4)CC3)C2=O)C(=O)N1 (stereo not drawn) [Compound A116, 3-(1′-(benzofuran-6-ylmethyl)-6-oxo-6,8-dihydro-2H,7H-spiro[furo[2,3-e]isoindole-3,4′-piperidin]-7-yl)piperidine-2,6-dione] | < 50 | 60 to 80 | 100 to 1000 | 
O=C1CCC(N2Cc3c(ccc4c3OCC43CCN(Cc4cccc(-c5cccnc5)c4)CC3)C2=O)C(=O)N1 (stereo not drawn) [Compound A132, 3-(6-oxo-1′-(3-(pyridin-3-yl)benzyl)-6,8-dihydro-2H,7H-spiro[furo[2,3-e]isoindole-3,4′-piperidin]-7-yl)piperidine-2,6-dione] | < 50 | 60 to 80 | 100 to 1000 | 
O=C1CCC(N2Cc3c(ccc4c3OCC43CCNCC3)C2=O)C(=O)N1 (stereo not drawn) [Compound A1, 3-(6-oxo-6,8-dihydro-2H,7H-spiro[furo[2,3-e]isoindole-3,4′-piperidin]-7-yl)piperidine-2,6-dione] | > 500 |  | > 1000 | < 40
O=C1CCC(N2Cc3c(ccc4c3OCC43CCN(Cc4cccc(-c5cnn(C6COC6)c5)c4)CC3)C2=O)C(=O)N1 (stereo not drawn) [Compound A161, 3-(1′-(3-(1-(oxetan-3-yl)-1H-pyrazol-4-yl)benzyl)-6-oxo-6,8-dihydro-2H,7H-spiro[furo[2,3-e]isoindole-3,4′-piperidin]-7-yl)piperidine-2,6-dione] | < 50 | 60 to 80 | 10 to 100 | 
